Assay results from PubChem BioAssay AID248 (DTP/NCI, 2004).
“And” between values parts separate entries of the source, which are not always exact repeats. Equal values may be shown once. Toxic doses and inconclusive results are not listed. No stated cut-off is given here; in the data, active means T/C of 150% or more; inactive means T/C below 125%.

System: L1210 leukemia ip in BDF1 mice, survival T/C
Assay: NCI In Vivo Anticancer Drug Screen. Data for tumor model L1210 Leukemia (intraperitoneal) in B6D2F1 (BDF1) mice
Conditions: endpoint: mean survival time, higher = longer survival
Procedure, shortened: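 Tumor was transplanted into mice, which were then dosed with test compound or vehicle alone. Survival was recorded for each group, and the treated figure was expressed relative to the control figure.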

[1] = dose: 50.0 mg/kg/injection, schedule: Q01DX001 (ip), vehicle: Klucel (hydroxypropylcellulose) (HPC)
[2] = dose: 100.0 mg/kg/injection, schedule: Q01DX001 (ip), vehicle: Klucel (hydroxypropylcellulose) (HPC)
[3] = dose: 200.0 mg/kg/injection, schedule: Q01DX001 (ip), vehicle: Klucel (hydroxypropylcellulose) (HPC)
[4] = dose: 100.0 mg/kg/injection, schedule: Q04DX003 (ip), vehicle: Klucel (hydroxypropylcellulose) (HPC)
[5] = dose: 400.0 mg/kg/injection, schedule: Q01DX001 (ip), vehicle: Klucel (hydroxypropylcellulose) (HPC)
[6] = dose: 100.0 mg/kg/injection, schedule: Q01DX001 (ip), vehicle: carboxymethylcellulose (CMC)
[7] = dose: 200.0 mg/kg/injection, schedule: Q01DX001 (ip), vehicle: carboxymethylcellulose (CMC)
[8] = dose: 400.0 mg/kg/injection, schedule: Q01DX001 (ip), vehicle: carboxymethylcellulose (CMC)
[9] = dose: 75.0 mg/kg/injection, schedule: Q04DX003 (ip), vehicle: saline
[10] = dose: 150.0 mg/kg/injection, schedule: Q04DX003 (ip), vehicle: saline
[11] = dose: 200.0 mg/kg/injection, schedule: Q04DX003 (ip), vehicle: Klucel (hydroxypropylcellulose) (HPC)
[12] = dose: 400.0 mg/kg/injection, schedule: Q04DX003 (ip), vehicle: Klucel (hydroxypropylcellulose) (HPC)
[13] = dose: 25.0 mg/kg/injection, schedule: Q04DX003 (ip), vehicle: saline

Measured: T/C

O=[N+]([O-])c1ccc(-[n+]2ccccc2)c([N+](=O)[O-])c1
inactive: dose: 18.75 mg/kg/injection, schedule: Q01DX009 (ip), vehicle: saline 105 % of control | dose: 25.0 mg/kg/injection, schedule: Q01DX009 (ip), vehicle: saline 105 % of control | dose: 37.5 mg/kg/injection, schedule: Q01DX009 (ip), vehicle: saline 103 % of control | dose: 50.0 mg/kg/injection, schedule: Q01DX009 (ip), vehicle: saline 103 % of control | dose: 75.0 mg/kg/injection, schedule: Q01DX009 (ip), vehicle: saline 102 % of control | dose: 100.0 mg/kg/injection, schedule: Q01DX009 (ip), vehicle: saline 102 % of control | dose: 150.0 mg/kg/injection, schedule: Q01DX009 (ip), vehicle: saline 112 % of control

O=c1[nH]c(Cc2ccc([N+](=O)[O-])cc2)c(Br)c(=O)[nH]1
inactive: [1] 103 % of control | [2] 92 % of control | [3] 92 % of control

CC(=O)OC(=O)c1ccc2c(c1)C(=O)c1ccccc1C2=O
inactive: dose: 25.0 mg/kg/injection, schedule: Q01DX009 (ip), vehicle: Klucel (hydroxypropylcellulose) (HPC) 100 % of control | [1] 105 % of control | dose: 50.0 mg/kg/injection, schedule: Q01DX009 (ip), vehicle: Klucel (hydroxypropylcellulose) (HPC) 98 % of control | [2] 111 % of control | dose: 100.0 mg/kg/injection, schedule: Q01DX009 (ip), vehicle: Klucel (hydroxypropylcellulose) (HPC) 102 % of control | [4] 100 % of control | [3] 111 % of control | [5] 96 % of control and 105 % of control

CCOC(=O)C1(CCCBr)CCCCC1=O (configuration not stated)
inactive: dose: 100.0 mg/kg/injection, schedule: Q01DX001 (ip), vehicle: saline with Tween-80 107 % of control | dose: 200.0 mg/kg/injection, schedule: Q01DX001 (ip), vehicle: saline with Tween-80 102 % of control | dose: 400.0 mg/kg/injection, schedule: Q01DX001 (ip), vehicle: saline with Tween-80 104 % of control

O=C(COc1c(Cl)cc(Cl)cc1Cl)Nc1cccnc1
inactive: [2] 100 % of control | [3] 100 % of control | [5] 107 % of control

CCOC(=O)c1c(C)c2c(n1C)CCC(CCC(C)=O)C2=O (configuration not stated)
inactive: [6] 104 % of control | [7] 97 % of control | [8] 93 % of control

O=C(COc1ccc(Cl)cc1)Nc1ccc(Cl)cc1C(=O)c1ccccc1
inactive: dose: 50.0 mg/kg/injection, schedule: Q01DX009 (ip), vehicle: other 106 % of control | dose: 100.0 mg/kg/injection, schedule: Q01DX009 (ip), vehicle: other 102 % of control | dose: 200.0 mg/kg/injection, schedule: Q01DX009 (ip), vehicle: other 96 % of control and 87 % of control | dose: 400.0 mg/kg/injection, schedule: Q01DX009 (ip), vehicle: other 89 % of control

Clc1ccccc1C(N1CCCCC1)C(Cl)(Cl)Cl (configuration not stated)
inactive: dose: 100.0 mg/kg/injection, schedule: Q04DX002 (ip), vehicle: saline 92 % of control | dose: 200.0 mg/kg/injection, schedule: Q04DX002 (ip), vehicle: saline 90 % of control | dose: 400.0 mg/kg/injection, schedule: Q04DX002 (ip), vehicle: saline 92 % of control

CC(=O)OCC1OC(N2C(=O)/C(=C/c3ccc(Cl)cc3)SC2=S)C(OC(C)=O)C(OC(C)=O)C1OC(C)=O (configuration not stated)
inactive: dose: 25.0 mg/kg/injection, schedule: Q01DX005 (ip), vehicle: other 97 % of control

NCCCNc1ccc([N+](=O)[O-])cc1
inactive: dose: 37.5 mg/kg/injection, schedule: Q04DX003 (ip), vehicle: saline 101 % of control | [9] 102 % of control | [10] 101 % of control

O=C1NC(=O)C(=Cc2cc(Br)ccc2[N+](=O)[O-])C(=O)N1
inactive: [6] 91 % of control | [7] 104 % of control | [8] 91 % of control

NC(CSSCC(N)C(=O)O)C(=O)O (configuration not stated)
inactive: [6] 95 % of control | [4] 93 % of control | [7] 94 % of control | [11] 93 % of control | [8] 95 % of control | [12] 91 % of control

O=c1cc(-c2ccccc2)sc(-c2ccccc2)c1
inactive: [9] 100 % of control | [4] 103 % of control | [10] 95 % of control | [11] 105 % of control | dose: 300.0 mg/kg/injection, schedule: Q04DX003 (ip), vehicle: saline 92 % of control | [12] 103 % of control

CCCCCCCCCCc1cc2c([nH]1)C(=O)c1ccccc1C2=O
inactive: dose: 37.5 mg/kg/injection, schedule: Q01DX001 (ip), vehicle: Klucel (hydroxypropylcellulose) (HPC) 86 % of control | dose: 75.0 mg/kg/injection, schedule: Q01DX001 (ip), vehicle: Klucel (hydroxypropylcellulose) (HPC) 89 % of control

COc1cccc2c1C(=O)c1c(O)c3c(c(O)c1C2=O)C[C@@](O)(/C(C)=N/NS(C)(=O)=O)C[C@@H]3OC1CC(N)C(O)C(C)O1 (some centres not stated)
inactive: dose: 0.25 mg/kg/injection, schedule: Q04DX003 (ip), vehicle: water 103 % of control | dose: 0.5 mg/kg/injection, schedule: Q04DX003 (ip), vehicle: water 103 % of control | dose: 1.0 mg/kg/injection, schedule: Q04DX003 (ip), vehicle: water 103 % of control | dose: 2.0 mg/kg/injection, schedule: Q04DX003 (ip), vehicle: water 105 % of control | dose: 4.0 mg/kg/injection, schedule: Q01DX009 (ip), vehicle: water 105 % of control | dose: 4.0 mg/kg/injection, schedule: Q04DX003 (ip), vehicle: water 107 % of control | dose: 8.0 mg/kg/injection, schedule: Q01DX009 (ip), vehicle: water 113 % of control | dose: 8.0 mg/kg/injection, schedule: Q04DX003 (ip), vehicle: water 101 % of control and 113 % of control | dose: 16.0 mg/kg/injection, schedule: Q01DX009 (ip), vehicle: water 121 % of control | dose: 16.0 mg/kg/injection, schedule: Q04DX003 (ip), vehicle: water 104 % of control and 115 % of control | dose: 64.0 mg/kg/injection, schedule: Q01DX009 (ip), vehicle: water 97 % of control

O=C(CCl)c1c(O)[n+](Cc2ccccc2)c2ccccn12
inactive: [13] 100 % of control | dose: 50.0 mg/kg/injection, schedule: Q04DX003 (ip), vehicle: saline 96 % of control | dose: 100.0 mg/kg/injection, schedule: Q01DX001 (ip), vehicle: saline 91 % of control | dose: 100.0 mg/kg/injection, schedule: Q04DX003 (ip), vehicle: saline 91 % of control | [10] 97 % of control | dose: 200.0 mg/kg/injection, schedule: Q01DX001 (ip), vehicle: saline 94 % of control | dose: 225.0 mg/kg/injection, schedule: Q04DX003 (ip), vehicle: saline 103 % of control | dose: 335.0 mg/kg/injection, schedule: Q04DX003 (ip), vehicle: saline 106 % of control

O=C1OCC(Cl)=C1Cl
inactive: dose: 6.25 mg/kg/injection, schedule: Q04DX003 (ip), vehicle: saline 101 % of control | dose: 12.5 mg/kg/injection, schedule: Q04DX003 (ip), vehicle: saline 101 % of control | [13] 103 % of control

OCC(Cc1ccccc1)N1CCCCC1 (configuration not stated)
inactive: dose: 5.0 mg/kg/injection, schedule: Q01DX001 (ip), vehicle: saline 109 % of control | dose: 10.0 mg/kg/injection, schedule: Q01DX001 (ip), vehicle: saline 96 % of control | dose: 20.0 mg/kg/injection, schedule: Q01DX001 (ip), vehicle: saline 96 % of control | dose: 40.0 mg/kg/injection, schedule: Q01DX001 (ip), vehicle: saline 96 % of control | dose: 80.0 mg/kg/injection, schedule: Q01DX001 (ip), vehicle: saline 96 % of control
